Test results published in patent US12011439B2, “Combination therapy using C—C chemokine receptor 4 (CCR4) antagonists and one or more immune checkpoint inhibitors” (CHEMOCENTRYX, INC., priority 2018, dated 2024).

What was measured:
CCR2 = CCR2 (Homo sapiens, UniProt P41597); assay: Compound 1 selectivity panel, buffer IC50; assay type: cell-based; conditions: Receptor CCR2
Method: (§1) The selectivity of Compound 1 was tested by determining the IC50 value against a diverse panel of receptors, enzymes, and ion channels. […] See, Table 1.

CCR4 [1] = target: T1, CCR4 (Homo sapiens, UniProt P51679); assay: Compound 1 selectivity panel, buffer IC50; assay type: cell-based
T1 sequence (P51679 1-360): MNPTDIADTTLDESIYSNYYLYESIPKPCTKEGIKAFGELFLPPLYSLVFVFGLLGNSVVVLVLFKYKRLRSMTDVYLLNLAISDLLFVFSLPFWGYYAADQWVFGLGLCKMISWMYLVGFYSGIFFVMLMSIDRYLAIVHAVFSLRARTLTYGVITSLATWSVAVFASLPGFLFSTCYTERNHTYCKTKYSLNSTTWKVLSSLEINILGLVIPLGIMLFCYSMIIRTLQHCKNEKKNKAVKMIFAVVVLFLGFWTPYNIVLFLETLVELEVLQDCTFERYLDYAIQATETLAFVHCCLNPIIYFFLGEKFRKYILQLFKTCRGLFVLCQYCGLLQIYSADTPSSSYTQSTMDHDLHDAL
Method: as §1

CCR5 = CCR5 (Homo sapiens, UniProt P51681); assay: Compound 1 selectivity panel, buffer IC50; assay type: cell-based; conditions: Receptor CCR5
Method: as §1

CCR6 = target: T2, CCR6 (Homo sapiens, UniProt P51684); assay: Compound 1 selectivity panel, buffer IC50; assay type: cell-based; conditions: Receptor CCR6
T2 sequence (P51684 1-374): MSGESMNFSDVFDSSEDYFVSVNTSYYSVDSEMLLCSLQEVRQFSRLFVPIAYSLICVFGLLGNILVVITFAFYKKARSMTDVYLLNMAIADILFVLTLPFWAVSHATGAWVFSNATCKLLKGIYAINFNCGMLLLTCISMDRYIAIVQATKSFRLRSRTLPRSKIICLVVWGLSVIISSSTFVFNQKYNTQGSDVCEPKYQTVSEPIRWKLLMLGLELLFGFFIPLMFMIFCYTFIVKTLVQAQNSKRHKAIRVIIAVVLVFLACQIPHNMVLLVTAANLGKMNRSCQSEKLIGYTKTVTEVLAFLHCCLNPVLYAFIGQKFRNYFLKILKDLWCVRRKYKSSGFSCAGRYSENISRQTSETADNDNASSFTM
Method: as §1

CCR7 = target: T3, CCR7 (Homo sapiens, UniProt P32248); assay: Compound 1 selectivity panel, buffer IC50; assay type: cell-based; conditions: Receptor CCR7
T3 sequence (P32248 25-378): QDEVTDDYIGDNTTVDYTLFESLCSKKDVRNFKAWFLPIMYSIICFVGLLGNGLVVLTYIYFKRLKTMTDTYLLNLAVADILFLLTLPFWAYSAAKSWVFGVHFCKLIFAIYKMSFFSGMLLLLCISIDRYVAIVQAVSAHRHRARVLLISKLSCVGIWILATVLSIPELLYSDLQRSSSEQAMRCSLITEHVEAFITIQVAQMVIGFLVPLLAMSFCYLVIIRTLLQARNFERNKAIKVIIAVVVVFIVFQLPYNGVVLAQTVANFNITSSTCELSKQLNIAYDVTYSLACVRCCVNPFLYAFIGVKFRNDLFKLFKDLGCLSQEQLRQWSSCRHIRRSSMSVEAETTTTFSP
Method: as §1

CCR8 = CCR8 (Homo sapiens, UniProt P51685); assay: Compound 1 selectivity panel, buffer IC50; assay type: cell-based; conditions: Receptor CCR8
Method: as §1

CXCR1 = target: T4, CXCR1 (Homo sapiens, UniProt P25024); assay: Compound 1 selectivity panel, buffer IC50; assay type: cell-based; conditions: Receptor CXCR1
T4 sequence (P25024 1-350): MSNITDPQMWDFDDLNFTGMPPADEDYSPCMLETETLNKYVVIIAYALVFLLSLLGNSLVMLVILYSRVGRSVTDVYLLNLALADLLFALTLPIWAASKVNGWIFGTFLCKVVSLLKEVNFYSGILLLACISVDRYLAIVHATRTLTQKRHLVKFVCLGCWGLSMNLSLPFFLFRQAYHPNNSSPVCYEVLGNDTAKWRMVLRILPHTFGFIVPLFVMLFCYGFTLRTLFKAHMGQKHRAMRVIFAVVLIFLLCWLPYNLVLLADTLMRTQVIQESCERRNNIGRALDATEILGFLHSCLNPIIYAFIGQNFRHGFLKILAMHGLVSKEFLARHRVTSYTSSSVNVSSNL
Method: as §1

CXCR2 = target: T5, CXCR2 (Homo sapiens, UniProt P25025); assay: Compound 1 selectivity panel, buffer IC50; assay type: cell-based; conditions: Receptor CXCR2
T5 sequence (P25025 1-360): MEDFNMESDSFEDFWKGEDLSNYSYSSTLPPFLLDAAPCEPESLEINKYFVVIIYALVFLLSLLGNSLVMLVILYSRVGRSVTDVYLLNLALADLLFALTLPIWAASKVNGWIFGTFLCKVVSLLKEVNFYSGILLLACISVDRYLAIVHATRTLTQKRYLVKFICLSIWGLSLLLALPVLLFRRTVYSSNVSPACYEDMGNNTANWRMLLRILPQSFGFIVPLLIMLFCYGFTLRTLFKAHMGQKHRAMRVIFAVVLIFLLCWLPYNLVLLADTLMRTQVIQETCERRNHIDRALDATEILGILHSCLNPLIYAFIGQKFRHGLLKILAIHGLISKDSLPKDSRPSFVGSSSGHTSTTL
Method: as §1

CXCR3 = target: T6, CXCR3 (Homo sapiens, UniProt P49682); assay: Compound 1 selectivity panel, buffer IC50; assay type: cell-based; conditions: Receptor CXCR3
T6 sequence (P49682 1-368): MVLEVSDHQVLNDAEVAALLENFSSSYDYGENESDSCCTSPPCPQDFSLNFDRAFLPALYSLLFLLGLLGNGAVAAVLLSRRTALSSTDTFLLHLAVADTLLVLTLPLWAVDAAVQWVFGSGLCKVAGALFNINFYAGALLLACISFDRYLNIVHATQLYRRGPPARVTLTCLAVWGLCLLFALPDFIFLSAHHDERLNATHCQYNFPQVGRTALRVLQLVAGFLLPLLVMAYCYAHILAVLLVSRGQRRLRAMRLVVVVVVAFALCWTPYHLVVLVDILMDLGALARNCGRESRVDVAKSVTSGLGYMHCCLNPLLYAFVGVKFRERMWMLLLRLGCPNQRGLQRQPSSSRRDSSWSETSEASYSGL
Method: as §1

CCR4 [2] = target: T1, CCR4; assay: 125I-CCL17 binding, human cells; conditions: buffer

CCR5, sequence (P51681 whole entry, species assumed): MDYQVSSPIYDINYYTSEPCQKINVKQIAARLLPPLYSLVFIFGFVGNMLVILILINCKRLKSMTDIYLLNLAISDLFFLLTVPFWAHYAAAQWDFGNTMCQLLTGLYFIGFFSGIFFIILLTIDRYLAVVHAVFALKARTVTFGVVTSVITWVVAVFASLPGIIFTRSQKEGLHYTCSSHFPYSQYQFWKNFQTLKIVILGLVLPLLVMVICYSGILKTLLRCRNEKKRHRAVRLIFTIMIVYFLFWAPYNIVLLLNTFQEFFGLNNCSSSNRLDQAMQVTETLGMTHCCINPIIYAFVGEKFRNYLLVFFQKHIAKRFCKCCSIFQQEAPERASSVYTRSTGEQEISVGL
CCR8, sequence (P51685 whole entry, species assumed): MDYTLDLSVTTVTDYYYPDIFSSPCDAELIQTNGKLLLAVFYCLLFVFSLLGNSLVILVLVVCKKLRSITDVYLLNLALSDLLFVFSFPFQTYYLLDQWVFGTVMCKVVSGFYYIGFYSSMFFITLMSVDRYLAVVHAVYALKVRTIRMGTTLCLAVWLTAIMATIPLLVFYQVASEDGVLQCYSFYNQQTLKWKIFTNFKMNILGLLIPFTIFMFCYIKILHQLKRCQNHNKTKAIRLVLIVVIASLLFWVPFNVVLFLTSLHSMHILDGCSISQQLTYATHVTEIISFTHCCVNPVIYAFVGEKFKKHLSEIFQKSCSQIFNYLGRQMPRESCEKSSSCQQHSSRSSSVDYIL
CCR2, sequence (P41597 whole entry, species assumed): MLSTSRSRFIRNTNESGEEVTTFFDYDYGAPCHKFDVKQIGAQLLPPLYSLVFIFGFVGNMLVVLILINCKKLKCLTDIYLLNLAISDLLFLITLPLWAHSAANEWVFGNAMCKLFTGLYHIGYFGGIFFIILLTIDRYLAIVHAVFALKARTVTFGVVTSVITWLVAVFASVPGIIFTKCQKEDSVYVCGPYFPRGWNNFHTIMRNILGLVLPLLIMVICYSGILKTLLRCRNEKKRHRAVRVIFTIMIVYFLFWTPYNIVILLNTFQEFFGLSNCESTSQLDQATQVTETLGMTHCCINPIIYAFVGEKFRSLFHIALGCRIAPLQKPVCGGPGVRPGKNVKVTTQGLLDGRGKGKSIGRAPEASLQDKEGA

C[C@@H](Nc1cc(C2CCN([C@H]3CCCN(CCC(=O)O)C3)CC2)ccc1Cl)c1ccc(Cl)cc1Cl [Compound 1] was tested, and the IC50 (CCR2) was greater than 10 µM, the IC50 (CCR4 [1]; Receptor CCR4, buffer) was 2 nM and the “Selectivity against a diverse panel of receptors, enzymes, and ion channels” value (CCR4 [1]; in words) was “highly specific for CCR4”. For the same compound, the IC50 (CCR5) was greater than 10 µM, the IC50 (CCR6) was greater than 10 µM and the IC50 (CCR7) was greater than 10 µM. It also gave an IC50 (CCR8) greater than 10 µM, an IC50 (CXCR1) greater than 10 µM and an IC50 (CXCR2) greater than 10 µM. For the same compound, the IC50 (CXCR3) was greater than 10 µM, the IC50 (CCR4 [2]; Human CEM cells) was 23 nM and the IC50 (CCR4 [2]; Human lymphocytes) was 37 nM.
